Measured values published in ChEMBL document CHEMBL1201862, “PubChem BioAssay data set” (2004).
Each block holds one compound with its values, some of them ahead of it. Calls of active or inactive are those of the source.

Tests used:
Vero = test: Vero cell toxicity, dose response, cytotoxicity control, plate reader, cherry-pick samples (AID 687020); assay type: functional, cell-based; settings: Chlorocebus sabaeus
[1] = biological target: T1, DNA repair and recombination protein RAD54-like (Homo sapiens, UniProt Q92698); test: inhibitors of human RAD54 branch migration, confirmation, biochemical, fluorescence, cherry-picked samples, dose series (AID 651657); assay type: functional
T1 sequence (Q92698 whole entry): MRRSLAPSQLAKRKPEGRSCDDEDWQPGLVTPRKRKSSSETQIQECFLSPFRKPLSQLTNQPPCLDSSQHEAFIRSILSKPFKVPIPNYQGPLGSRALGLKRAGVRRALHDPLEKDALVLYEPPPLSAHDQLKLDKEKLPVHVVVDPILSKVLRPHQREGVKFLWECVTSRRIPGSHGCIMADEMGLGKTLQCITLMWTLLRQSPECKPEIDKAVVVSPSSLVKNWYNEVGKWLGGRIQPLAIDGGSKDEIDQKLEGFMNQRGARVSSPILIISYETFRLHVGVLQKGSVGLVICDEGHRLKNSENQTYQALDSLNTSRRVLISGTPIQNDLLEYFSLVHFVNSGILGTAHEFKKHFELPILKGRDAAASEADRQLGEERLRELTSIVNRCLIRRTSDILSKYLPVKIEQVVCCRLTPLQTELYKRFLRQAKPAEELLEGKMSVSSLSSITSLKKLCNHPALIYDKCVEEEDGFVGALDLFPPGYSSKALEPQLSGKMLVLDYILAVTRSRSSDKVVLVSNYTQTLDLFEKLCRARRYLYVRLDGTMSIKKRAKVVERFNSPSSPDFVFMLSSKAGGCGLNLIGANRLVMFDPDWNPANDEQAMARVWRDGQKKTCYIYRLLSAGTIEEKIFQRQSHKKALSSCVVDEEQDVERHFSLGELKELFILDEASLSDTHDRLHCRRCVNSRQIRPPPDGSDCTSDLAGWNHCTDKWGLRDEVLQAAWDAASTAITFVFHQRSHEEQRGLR

Galanin receptor type 3 = biological target: T2, Galanin receptor type 3 (Homo sapiens, UniProt O60755); test: Fluorescence-based cell-based primary high throughput dose response assay to identify antagonists of the Galanin Receptor 3 (GalR3).; assay type: functional
T2 sequence (O60755 whole entry): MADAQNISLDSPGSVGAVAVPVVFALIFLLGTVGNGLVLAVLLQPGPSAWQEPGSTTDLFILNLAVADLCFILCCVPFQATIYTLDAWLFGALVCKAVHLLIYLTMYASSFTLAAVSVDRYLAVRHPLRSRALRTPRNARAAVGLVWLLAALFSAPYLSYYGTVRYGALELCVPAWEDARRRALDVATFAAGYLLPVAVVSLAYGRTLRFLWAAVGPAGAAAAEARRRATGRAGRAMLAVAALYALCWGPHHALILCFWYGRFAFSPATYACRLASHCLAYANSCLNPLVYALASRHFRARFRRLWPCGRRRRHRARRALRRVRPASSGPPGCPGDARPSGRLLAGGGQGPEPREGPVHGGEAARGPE

cells = assay type: functional, cell-based; settings: HEK-CNG
Albumin = Albumin (Bos taurus, UniProt P02769); test: Counterscreen for inhibitors of T-cell receptor (TCR)-CD3 interaction: Fluorescence-based biochemical high throughput dose response assay to identify inhibitors of T-cell receptor (TCR)-CD3 interaction using a TAMRA-labeled BSA probe.; assay type: functional
Chain of Albumin (P02769 whole entry): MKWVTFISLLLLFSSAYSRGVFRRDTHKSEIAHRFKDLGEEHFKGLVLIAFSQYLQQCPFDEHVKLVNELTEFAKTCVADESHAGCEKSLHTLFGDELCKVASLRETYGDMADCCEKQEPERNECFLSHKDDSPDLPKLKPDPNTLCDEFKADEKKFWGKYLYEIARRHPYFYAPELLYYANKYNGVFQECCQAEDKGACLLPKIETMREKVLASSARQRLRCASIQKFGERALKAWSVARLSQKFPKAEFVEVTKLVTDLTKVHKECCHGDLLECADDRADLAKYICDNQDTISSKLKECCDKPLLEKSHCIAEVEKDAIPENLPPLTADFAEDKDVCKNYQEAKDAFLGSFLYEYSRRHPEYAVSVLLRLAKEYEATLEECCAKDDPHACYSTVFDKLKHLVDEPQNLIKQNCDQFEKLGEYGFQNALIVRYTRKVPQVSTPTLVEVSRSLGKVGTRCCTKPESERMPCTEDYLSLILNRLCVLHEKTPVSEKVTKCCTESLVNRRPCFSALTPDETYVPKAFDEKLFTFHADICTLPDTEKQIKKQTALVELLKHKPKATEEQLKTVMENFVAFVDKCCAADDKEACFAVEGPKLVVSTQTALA

fMet-Leu-Phe receptor = biological target: T3, fMet-Leu-Phe receptor (Homo sapiens, UniProt P21462); test: FPR ligands, dose response (AID 519); assay type: functional
T3 sequence (P21462 whole entry): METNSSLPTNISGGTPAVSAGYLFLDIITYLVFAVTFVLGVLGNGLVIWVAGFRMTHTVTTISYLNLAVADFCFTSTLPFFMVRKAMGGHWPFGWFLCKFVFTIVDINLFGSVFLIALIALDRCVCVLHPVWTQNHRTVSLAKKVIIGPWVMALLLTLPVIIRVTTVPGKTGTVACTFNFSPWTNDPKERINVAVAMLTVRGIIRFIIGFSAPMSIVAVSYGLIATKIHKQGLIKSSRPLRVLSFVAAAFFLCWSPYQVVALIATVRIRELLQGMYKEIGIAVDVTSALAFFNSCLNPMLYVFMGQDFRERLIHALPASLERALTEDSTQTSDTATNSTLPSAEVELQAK

CHO-K1 = test: (§1) Counterscreen for antagonists of the orexin 1 receptor (OX1R; HCRTR1): Homogeneous time resolved fluorescence (HTRF)-based cell-based dose response assay to identify antagonists of the parental CHO-K1 cell line. [Related pubchem assays (depositor defined):AID434989, AID435008, AID463079, AID485270, AID492963, AID492964, AID492965, AID493232, AID504699, AID504701]; assay type: functional; settings: Cricetulus griseus
Orexin receptor type 2 [2] = biological target: T4, Orexin receptor type 2 (Homo sapiens, UniProt O43614); test: Counterscreen assay for antagonists of the orexin 1 receptor (OX1R; HCRTR1): Fluorescence-based cell-based dose response assay for antagonists of the orexin 2 receptor (OX2R; HCRTR2), run by assay provider.; assay type: functional
T4 sequence (O43614 whole entry): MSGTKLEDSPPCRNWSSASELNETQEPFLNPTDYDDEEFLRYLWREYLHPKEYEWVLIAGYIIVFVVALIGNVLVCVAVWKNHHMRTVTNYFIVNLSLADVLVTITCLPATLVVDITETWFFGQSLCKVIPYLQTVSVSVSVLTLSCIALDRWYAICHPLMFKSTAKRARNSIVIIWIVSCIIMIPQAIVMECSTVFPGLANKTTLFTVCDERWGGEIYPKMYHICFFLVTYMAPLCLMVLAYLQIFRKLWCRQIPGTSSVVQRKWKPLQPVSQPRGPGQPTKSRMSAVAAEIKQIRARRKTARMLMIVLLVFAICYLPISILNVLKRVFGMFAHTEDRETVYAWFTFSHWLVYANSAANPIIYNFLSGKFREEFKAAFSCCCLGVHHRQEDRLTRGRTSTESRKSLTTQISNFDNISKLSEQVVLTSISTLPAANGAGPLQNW

[3] = biological target: T5, Orexin/Hypocretin receptor type 1 (Homo sapiens, UniProt O43613); test: (§2) Fluorescence-based cell-based high throughput dose response assay for antagonists of the orexin 1 receptor (OX1R; HCRTR1). [Related pubchem assays (depositor defined):AID434989, AID435008, AID463079, AID485270, AID492963, AID492964, AID492965, AID493232, AID504717, AID504718]; assay type: functional
T5 sequence (O43613 whole entry): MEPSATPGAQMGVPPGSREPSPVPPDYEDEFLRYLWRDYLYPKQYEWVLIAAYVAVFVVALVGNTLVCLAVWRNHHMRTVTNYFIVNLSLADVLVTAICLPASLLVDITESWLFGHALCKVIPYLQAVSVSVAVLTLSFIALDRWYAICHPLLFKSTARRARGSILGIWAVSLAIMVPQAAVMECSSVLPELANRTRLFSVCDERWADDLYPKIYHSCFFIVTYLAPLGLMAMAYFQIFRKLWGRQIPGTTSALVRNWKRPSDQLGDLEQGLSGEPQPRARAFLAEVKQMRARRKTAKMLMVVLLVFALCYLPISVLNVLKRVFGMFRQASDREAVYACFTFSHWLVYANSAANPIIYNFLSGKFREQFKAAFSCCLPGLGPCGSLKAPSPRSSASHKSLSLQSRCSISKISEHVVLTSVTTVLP

Orexin receptor type 2 [4] = biological target: T4, Orexin receptor type 2; test: Counterscreen assay for antagonists of the orexin 1 receptor (OX1R; HCRTR1): Homogeneous Time Resolved Fluorescence (HTRF)-based cell-based dose response assay for antagonists of the orexin 2 receptor (OX2R; HCRTR2), run by assay provider.; assay type: functional
[5] = as §1, with “Fluorescence-based” for “Homogeneous time resolved fluorescence (HTRF)-based”, “cell-based high throughput” for “cell-based”, “CHO” for “CHO-K1”; assay type: functional
[6] = biological target: T5, Orexin/Hypocretin receptor type 1; test: as §2, with “Homogeneous Time Resolved Fluorescence (HTRF)-based” for “Fluorescence-based”; assay type: functional
HeLa = test: HeLa cell cytotoxicity, dose response, cytotoxicity control, ATP luminescence, cherry-pick samples (AID 687004); assay type: functional, cell-based; settings: Homo sapiens
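Throughout, for EC50: target is galanin receptor GalR3 read with a cAMP biosensor in HEK293 cells.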

Structure (SMILES): Cc1c(C(=O)NCc2cccnc2)oc2ccc(S(=O)(=O)N3CC(C)CC(C)C3)cc12 (stereo not given)
AC50 (Vero): 32.4 µM (active)

AC50 [1]: 46.5 µM (active)
Structure (SMILES): CCN1CCN(CCCNC(=O)c2cc3c(O)nc4ccccc4c3s2)CC1

Structure (SMILES): c1c[nH]c(CN2CCN(Cc3ncc[nH]3)CC2)n1
AC50 [1]: 63.3 µM (active)

Structure (SMILES): N#Cc1nc(N2CCCC2)nc(N2CCCC2)n1
IC50 (Galanin receptor type 3): 1.81 µM (active)
EC50 (cells): > 29.9 µM (inactive)

IC50 (Albumin): > 94.1 µM (inactive)
Structure (SMILES): Cc1ccc(S(=O)(=O)N2CCC(C(=O)NNC(=O)c3ccccc3O)CC2)cc1C

Ki (fMet-Leu-Phe receptor): > 66.7 µM (inactive)
Structure (SMILES): CCC(CCC(=O)Nc1cccc(C(=O)O)c1)C(=O)O (stereo not given)

Structure (SMILES): CC(=C/c1ccccc1)/C=C1/SC(N2CCOCC2)=NC1=O
IC50 (CHO-K1): 40.7 µM (inactive)
IC50 (Orexin receptor type 2 [2]): > 88.8 µM (inactive)
IC50 [3]: 3.82 µM (active)
IC50 (Orexin receptor type 2 [4]): 26 µM (inactive)
IC50 [5]: > 49.8 µM (inactive)
IC50 [6]: 0.51 µM (active)

Structure (SMILES): COC(=O)C1=C(C)N(Cc2ccc(Br)cc2)C(=S)NC1c1cccc(Br)c1 (stereo not given)
AC50 (HeLa): 38.1 µM (active)

IC50 (Albumin): > 94.1 µM (inactive)
Structure (SMILES): O=C(CNC(=O)c1ccccc1F)NNC(=O)c1ccccc1O
